Reference: patent US8431596B2 (Cancer Research Technology Limited, priority 2007, dated 2013)

Molecular target: T1, AXL (human catalytic domain) (Homo sapiens, UniProt P30530)
T1 construct: purchased Upstate Ltd. 14-512
T1 sequence (P30530 473-894): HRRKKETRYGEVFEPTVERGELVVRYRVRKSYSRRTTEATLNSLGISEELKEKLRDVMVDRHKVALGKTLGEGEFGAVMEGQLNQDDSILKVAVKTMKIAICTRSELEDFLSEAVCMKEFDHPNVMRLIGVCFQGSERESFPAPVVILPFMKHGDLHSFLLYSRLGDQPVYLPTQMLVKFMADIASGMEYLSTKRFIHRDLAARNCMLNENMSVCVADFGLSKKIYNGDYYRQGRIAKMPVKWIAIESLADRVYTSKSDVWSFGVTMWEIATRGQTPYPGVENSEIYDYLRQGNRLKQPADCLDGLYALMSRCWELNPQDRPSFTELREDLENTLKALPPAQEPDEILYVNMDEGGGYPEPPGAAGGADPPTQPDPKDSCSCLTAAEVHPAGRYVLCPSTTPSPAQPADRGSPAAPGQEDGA
Assay: AXL (human catalytic domain) Enzyme Activity Assay (IMAP fluorescence polarisation)
Format: biochemical
Details: further data set (WW-001 through WW-169, XX-001 through XX-469, YY-001 through YY-016, ZZ-001 through ZZ-003); 150 μM ATP
Method in brief: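 Recombinant human AXL isoform 1 (aa473-894; final 15 nM) phosphorylated 100 nM fluorescein-CSK-tide with 150 μM ATP (KM) in HEPES pH 7.0/MgCl2/DTT buffer for 60 min at room temperature. IMAP fluorescence polarisation read after overnight binding; IC50 from 10-point 4-parameter logistic fits.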

Compound	IC50 [nM]
O=C(Nc1cccc(-c2cccc3nc(Nc4ccc(OCCN5CCCC5)cc4)nn23)c1)c1ccno1 [XX-192]	100 to 1000
c1ccc(Cn2cc(-c3cccc4nc(Nc5ccc(OCCN6CCCC6)cc5)nn34)cn2)cc1 [XX-193, [5-(1-Benzyl-1H-pyrazol-4-yl)-[1,2,4]triazolo[1,5-a]pyridin-2-yl]-[4-(2-pyrrolidin-1-yl-ethoxy)-phenyl]-amine]	100 to 1000
COc1ccccc1-c1cccc2nc(Nc3ccc(OCCN4CCCC4)cc3)nn12 [XX-194]	1000 to 10000
FC(F)(F)c1ccccc1-c1cccc2nc(Nc3ccc(OCCN4CCCC4)cc3)nn12 [XX-195]	1000 to 10000
Oc1cc(F)ccc1-c1cccc2nc(Nc3ccc(OCCN4CCCC4)cc3)nn12 [XX-196]	1000 to 10000
COc1ncc(-c2cccc3nc(Nc4ccc(OCCN5CCCC5)cc4)nn23)cn1 [XX-197]	1000 to 10000
CN(C)c1ccc(-c2cccc3nc(Nc4ccc(OCCN5CCCC5)cc4)nn23)cn1 [XX-198]	100 to 1000
COC(=O)c1ccc(-c2cccc3nc(Nc4ccc(OCCN5CCCC5)cc4)nn23)cc1 [XX-199]	100 to 1000
COc1ncccc1-c1cccc2nc(Nc3ccc(OCCN4CCCC4)cc3)nn12 [XX-200]	1000 to 10000
c1cc(-c2ccsc2)n2nc(Nc3ccc(OCCN4CCCC4)cc3)nc2c1 [XX-201]	100 to 1000
c1cc(-c2cn[nH]c2)n2nc(Nc3ccc(OCCN4CCCC4)cc3)nc2c1 [XX-202, [5-(1H-Pyrazol-4-yl)-[1,2,4]triazolo[1,5-a]pyridin-2-yl]-[4-(2-pyrrolidin-1-yl-ethoxy)-phenyl]-amine]	100 to 1000
c1coc(-c2cccc3nc(Nc4ccc(OCCN5CCCC5)cc4)nn23)c1 [XX-203]	100 to 1000
Cc1ccc(-c2cccc3nc(Nc4ccc(OCCN5CCCC5)cc4)nn23)cn1 [XX-204]	1000 to 10000
CC(=O)Nc1ccc(-c2cccc3nc(Nc4ccc(OCCN5CCCC5)cc4)nn23)cc1 [XX-205]	100 to 1000
CN(C)c1ccc(-c2cccc3nc(Nc4ccc(OCCN5CCCC5)cc4)nn23)cc1 [XX-206]	100 to 1000
COc1c(C)cc(-c2cccc3nc(Nc4ccc(OCCN5CCCC5)cc4)nn23)cc1C [XX-207]	100 to 1000
c1cc(-c2ccc3nonc3c2)n2nc(Nc3ccc(OCCN4CCCC4)cc3)nc2c1 [XX-208]	100 to 1000
c1cc(-c2ccc3c(c2)OCCCO3)n2nc(Nc3ccc(OCCN4CCCC4)cc3)nc2c1 [XX-209]	100 to 1000
Clc1cccc(-c2cccc3nc(Nc4ccc(OCCN5CCCC5)cc4)nn23)c1 [XX-210]	100 to 1000
Clc1ccc(-c2cccc3nc(Nc4ccc(OCCN5CCCC5)cc4)nn23)cc1 [XX-211]	≤ 100
Cc1ccccc1-c1cccc2nc(Nc3ccc(OCCN4CCCC4)cc3)nn12 [XX-212]	1000 to 10000
Cc1cccc(-c2cccc3nc(Nc4ccc(OCCN5CCCC5)cc4)nn23)c1 [XX-213]	100 to 1000
Cc1ccc2sc(-c3cccc4nc(Nc5ccc(OCCN6CCCC6)cc5)nn34)cc2c1 [XX-214]	100 to 1000
CS(=O)(=O)c1ccc(-c2cccc3nc(Nc4ccc(OCCN5CCCC5)cc4)nn23)cc1 [XX-215, [5-(4-Methanesulfonyl-phenyl)-[1,2,4]triazolo[1,5-a]pyridin-2-yl]-[4-(2-pyrrolidin-1-yl-ethoxy)-phenyl]-amine]	100 to 1000
c1ccc(-c2ccc(-c3cccc4nc(Nc5ccc(OCCN6CCCC6)cc5)nn34)cc2)cc1 [XX-216]	100 to 1000
COCc1ccc(-c2cccc3nc(Nc4ccc(OCCN5CCCC5)cc4)nn23)cc1 [XX-217]	100 to 1000
FC(F)(F)c1ccc(-c2cccc3nc(Nc4ccc(OCCN5CCCC5)cc4)nn23)cc1 [XX-218]	100 to 1000
c1cc(-c2ccncc2)n2nc(Nc3ccc(OCCN4CCCC4)cc3)nc2c1 [XX-219]	1000 to 10000
O=C(Nc1ccc(-c2cccc3nc(Nc4ccc(OCCN5CCCC5)cc4)nn23)cc1)c1cccc(Cl)c1 [XX-220]	1000 to 10000
